According to US9850283B2, “Macrocyclic inhibitors of the PD-1/PD-L1 and CD80(B7-1)/PD-L1 protein/protein interactions” (BRISTOL-MYERS SQUIBB COMPANY, priority 2013, dated 2017):
Positions of bridges follow the written chain, without caps; N, C: chain ends. Non-standard residues stand in square brackets, D forms with d. Residues, ends and D or L forms follow the SMILES beside them. Hyp = O=C(O)[C@@H]1C[C@@H](O)CN1; NMeNle = CCCC[C@H](NC)C(=O)O; NMeA = CN[C@@H](C)C(=O)O; Orn = NCCC[C@H](N)C(=O)O; Dab = NCC[C@H](N)C(=O)O; Sar = CNCC(=O)O

How the values were obtained:
Human PD-L1/PD-1 = biological target: T1, Human PD-L1/PD-1 (Homo sapiens, UniProt Q9NZQ7); test: HTRF PD-1-Ig/PD-L1-His binding assay (human PD-L1); conditions: cluster symbol; read-out: HTRF IC50 cluster
T1 construct: made in house; host or cells: HEK293T
T1 sequence (Q9NZQ7 with tags, fused parts or gaps): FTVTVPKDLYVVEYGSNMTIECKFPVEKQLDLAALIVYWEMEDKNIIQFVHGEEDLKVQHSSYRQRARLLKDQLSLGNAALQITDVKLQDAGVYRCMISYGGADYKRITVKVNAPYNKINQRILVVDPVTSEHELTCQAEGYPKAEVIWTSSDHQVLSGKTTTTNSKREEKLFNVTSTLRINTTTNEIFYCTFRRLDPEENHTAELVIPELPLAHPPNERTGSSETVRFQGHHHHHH
Procedure, shortened: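 Interaction of Fc-tagged soluble PD-1 with His-tagged soluble PD-L1 is monitored by time-resolved FRET. Donor is europium cryptate anti-Ig (1 nM final) and acceptor is APC anti-His (20 nM final). Assay buffer is dPBS with 0.1% BSA and 0.05% Tween-20.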

[1] = biological target: T2, LK35.2-hPD-L1 cells / PE-labeled PD-1-Ig (Homo sapiens, UniProt Q9NZQ7); test: LK35.2-hPD-L1 cell binding high-content screening assay; type: cell-based; conditions: cell binding assay, cell line not given; cluster symbol; read-out: CBA IC50 cluster
T2 construct: expressed in transfected cells; host or cells: LK35.2 mouse B cell line
T2 sequence (Q9NZQ7 19-290): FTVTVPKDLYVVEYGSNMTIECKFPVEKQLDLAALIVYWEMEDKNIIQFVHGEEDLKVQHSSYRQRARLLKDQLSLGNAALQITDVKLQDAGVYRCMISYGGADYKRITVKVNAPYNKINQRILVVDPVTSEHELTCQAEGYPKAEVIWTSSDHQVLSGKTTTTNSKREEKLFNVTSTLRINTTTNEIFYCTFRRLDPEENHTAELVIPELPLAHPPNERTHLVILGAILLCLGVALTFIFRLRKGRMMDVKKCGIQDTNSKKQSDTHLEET
Procedure, shortened: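 Compound effect on PD-1/PD-L1 binding is measured by imaging cell-associated phycoerythrin signal. Human PD-1-Ig (PE on Ig tag, 1 nM final) is applied with compound to a murine B cell line overexpressing human PD-L1 for 1 h at 37 °C in serum-containing RPMI.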

Row | SMILES | IC50 (Human PD-L1/PD-1) [nM] | IC50 [1] [nM]
1 | CCCC[C@H]1C(=O)N(C)[C@@H](CCCC)C(=O)N[C@@H](CCCNC(=N)N)C(=O)N[C@H](C(=O)NCC(N)=O)CSCC(=O)N[C@@H](Cc2ccc(O)cc2)C(=O)N(C)[C@@H](C)C(=O)N[C@@H](CC(N)=O)C(=O)N2CCC[C@H]2C(=O)N[C@@H](Cc2cnc[nH]2)C(=O)N[C@@H](CCCN)C(=O)N2C[C@H](O)C[C@H]2C(=O)N[C@@H](Cc2c[nH]c3ccccc23)C(=O)N[C@@H](CO)C(=O)N[C@@H](Cc2c[nH]c3ccccc23)C(=O)N1C [Example 5023] ({CH2CO}-Y[NMeA]NPH[Orn][Hyp]WSW[NMeNle][NMeNle]RCG-NH2; thioether N-14) | 6.76 to 30.3 | 4.78 to 72.9
2 | CCCC[C@H]1C(=O)N(C)CC(=O)N[C@@H](CCCNC(=N)N)C(=O)N[C@H](C(=O)NCC(N)=O)CSCC(=O)N[C@@H](Cc2ccccc2)C(=O)N(C)[C@@H](C)C(=O)N[C@@H](CC(N)=O)C(=O)N2CCC[C@H]2C(=O)N[C@@H](Cc2cnc[nH]2)C(=O)N[C@@H](CC(C)C)C(=O)N(C)CC(=O)N[C@@H](Cc2c[nH]c3ccccc23)C(=O)N[C@@H](CO)C(=O)N[C@@H](Cc2c[nH]c3ccccc23)C(=O)N1C [Example 5027] (HELM PEPTIDE1{[O=C(C[*:3])[*:2]].F.[meA].N.P.H.L.[Sar].W.S.W.[CCCC[C@@H](C(=O)[*:2])N(C)[*:1]].[Sar].R.C.G.[am]}$PEPTIDE1,PEPTIDE1,1:R3-15:R3$$$V2.0) | > 30.5 | > 74.3
3 | CCCC[C@H]1C(=O)N(C)[C@@H](CCCC)C(=O)N[C@@H](CC(=O)O)C(=O)N[C@H](C(=O)NCC(N)=O)CSCC(=O)N[C@@H](Cc2ccccc2)C(=O)N(C)[C@@H](C)C(=O)N[C@@H](CC(N)=O)C(=O)N2CCC[C@H]2C(=O)N[C@@H](Cc2cnc[nH]2)C(=O)N[C@@H](CC(C)C)C(=O)N(C)CC(=O)N[C@@H](Cc2c[nH]c3ccccc23)C(=O)N[C@@H](CO)C(=O)N[C@@H](Cc2c[nH]c3ccccc23)C(=O)N1C [Example 5030] ({CH2CO}-F[NMeA]NPHL[Sar]WSW[NMeNle][NMeNle]DCG-NH2; thioether N-14) | > 30.5 | > 74.3

Further lines, results first:

Row | IC50 (Human PD-L1/PD-1) [nM] | IC50 [1] [nM] | SMILES
4 | 0.385 to 6.74 | 0.158 to 4.71 | CCCC[C@H]1C(=O)N(C)[C@@H](CCCC)C(=O)N[C@@H](CCCNC(=N)N)C(=O)N[C@H](C(=O)NCC(N)=O)CSCC(=O)N[C@@H](Cc2ccc(O)cc2)C(=O)N(C)[C@@H](C)C(=O)N[C@@H](CC(N)=O)C(=O)N2CCC[C@H]2C(=O)N[C@@H](Cc2cnc[nH]2)C(=O)N[C@@H](CCCCN)C(=O)N2C[C@H](O)C[C@H]2C(=O)N[C@@H](Cc2c[nH]c3ccccc23)C(=O)N[C@@H](CO)C(=O)N[C@@H](Cc2c[nH]c3ccccc23)C(=O)N1C [Example 5024] ({CH2CO}-Y[NMeA]NPHK[Hyp]WSW[NMeNle][NMeNle]RCG-NH2; thioether N-14)
5 | 0.385 to 6.74 | 0.158 to 4.71 | CCCC[C@H]1C(=O)N(C)[C@@H](CCCC)C(=O)N[C@@H](CCN)C(=O)N[C@H](C(=O)NCC(N)=O)CSCC(=O)N[C@@H](Cc2ccc(O)cc2)C(=O)N(C)[C@@H](C)C(=O)N[C@@H](CC(N)=O)C(=O)N2CCC[C@H]2C(=O)N[C@@H](Cc2cnc[nH]2)C(=O)N[C@@H](CCC(=O)O)C(=O)N2C[C@H](O)C[C@H]2C(=O)N[C@@H](Cc2c[nH]c3ccccc23)C(=O)N[C@@H](CCN)C(=O)N[C@@H](Cc2c[nH]c3ccccc23)C(=O)N1C [Example 5028] ({CH2CO}-Y[NMeA]NPHE[Hyp]W[Dab]W[NMeNle][NMeNle][Dab]CG-NH2; thioether N-14)
6 | 0.385 to 6.74 | 0.158 to 4.71 | CCCC[C@H]1C(=O)N(C)[C@@H](CCCC)C(=O)N[C@@H](CCN)C(=O)N[C@H](C(=O)NCC(N)=O)CSCC(=O)N[C@@H](Cc2ccc(O)cc2)C(=O)N(C)[C@@H](C)C(=O)N[C@@H](CC(=O)O)C(=O)N2CCC[C@H]2C(=O)N[C@@H](Cc2cnc[nH]2)C(=O)N[C@@H](CCC(=O)O)C(=O)N2C[C@H](O)C[C@H]2C(=O)N[C@@H](Cc2c[nH]c3ccccc23)C(=O)N[C@@H](CO)C(=O)N[C@@H](Cc2c[nH]c3ccccc23)C(=O)N1C [Example 5029] ({CH2CO}-Y[NMeA]DPHE[Hyp]WSW[NMeNle][NMeNle][Dab]CG-NH2; thioether N-14)
